{
  "source": "patent US9888679B2",
  "about": "“Protection of progenitor cells and regulation of their differentiation” (Proteobioactives Pty Ltd, priority 2007, dated 2018)",
  "key": {"[1]": {"tested_on": "murine progenitor cells (C3H10T1-2)", "test": "Proteoglycan synthesis in micromass cultures, 6 and 9 days", "type": "cell-based", "details": "FIG. 16", "experimental": "FIG. 16. A bar graph showing the concentration dependent effects of PPS on proteoglycan synthesis by murine progenitor cells (C3H10T1-2) in micromass cultures for 6 days and 9 days. PPS was included in the media (Ham's F12+10% FCS) and was changed every 48 hours. ^35S—SO4 was added 24 hours before culture termination. Synthesis normalized to DNA content. * P<0.05, **P<0.005, ***P<0.0005 relative to controls.\nThe technique used was based on that described by (Denker A E, Haas A R, Nicoll S B and Tuan R S. Chondrogenic differentiation of murine C3H10T1/2 multipotential progenitor cells: I. Stimulation by bone morphogenetic protein-2 in high density micromass cultures. Differentiation (1999); 64: 67-76). Briefly murine Progenitor cells (cell lines C3H10T1/2 or ATDC5) purchased from RIKEN Cell Bank (Tsukuba, Japan) or human immunoselected Stro-1+ Progenitor cells (Mesoblast Ltd, Melbourne, Australia) Ten microlitres (10 μl) of a suspension of the progenitor cells (1×10^7 cells/ml in Ham's F12 medium+10% FBS) were applied to individual wells of a 24-well plates. […] The radioactivity of ^35S—SO4 incorporated the ^35S-GAG-CPC complexes was measured by scintillation counting. […]"}, "Murine ATDC5 cell line": {"tested_on": "Murine ATDC5 cell line", "test": "Proteoglycan biosynthesis (35S-GAG) in pellet cultures", "type": "cell-based", "details": "2 micrograms/mL; 6 day pellet culture; FIG. 12", "excerpt": "FIG. 12. A bar graph of the concentration dependent effects of Pentosan Polysulfate (PPS), on the biosynthesis of Proteoglycans (PGs) as determined by the incorporation of radioactively labelled sulfate into the sulfated glycosaminoglycans (^35S-GAG) of PGs in 6 day pellet cultures of murine progenitor cells (ADTC-5). *=p<0.05 relative to control.\nFIG. 22. A bar graph of the concentration dependent effects of rhNC4 (batch PBA-1202P) expressed by K. lactis, in the absence (maintenance media, MM) and presence of insulin (10 micrograms/mL) (differentiation media, DM), on the biosynthesis of Proteoglycans PGs) in pellet cultures of ATDC5 cells. Data is shown as the % change relative to controls taken to be 100%.\nMurine Progenitor cells (cell lines C3H10T1/2 or ATDC5) purchased from RIKEN Cell Bank (Tsukuba, Japan) or human immunoselected Stro-1+ Progenitor cells (Mesoblast Ltd, Melbourne, Australia) were seeded in 2 ml screw-capped sterile centrifuge tubes and the total volume made-up to 1 ml with DMEM-High glucose medium containing 10% FBS. Progenitor cells were then centrifuged at 500 g for 10 min in a swing-out rotor at room temperature. The screw caps were loosened and the tubes placed in an incubator at 37° C., in a 5% CO2/95% air moist atmosphere. The pellets generally formed within 24 hours. Medium was changed daily in the first two days, then once every 2-3 days thereafter. On day 5 the medium was removed and to each tube was added 1 ml with DMEM-High glucose medium containing 10% FBS, 5.0 μCi/ml ^35S-H2SO4 and various concentrations of PPS (0, 0.1, 0.5, 1.0, 2.5, 5.0, 10.0, 20.0, μg/ml) (FIG. 12-15) or rhNC4 (0, 0.1, 0.5, 1.0, 2.0 μg/ml) (FIG. 22). Triplicate cultures were used for all concentration of drugs. The screw caps were loosened and the tubes placed in an incubator at 37° C., in a 5% CO2/95% moist air atmosphere […]. On day 6, 200 μl of stock papain solution [2.5 mg/ml papain, 7.9 mg/ml L-Cystein in papain buffer (0.1 M NaAC, 5 mM EDTA, pH6.0)] was added to each tube. The tubes were tightly capped and incubated at 65° C. for 2 hours. After papain digestion, 4 replicates of 200 μl of papain digested solution were separately transferred to a 96-well micro-titre plate (200 μl/well). The remaining solution was used for the DNA fluorometric assays which were undertaken in triplicate as described above. Biosynthesis of ^35S-GAGs was determined as described for the monolayer cultures and the results expressed as ^35-S-GAGs/μg DNA.\nData is shown as the % of controls taken to be 100%."}},
  "data": [
    {"substance": "pentosan polysulfate [PPS]", "values": [
      {"measurement": "uptake of 35S into newly synthesized PG", "setting": "[1]; 1-20 micrograms/mL, micromass", "result": "Highly significant stimulation"},
      {"measurement": "stimulation of proteoglycan synthesis", "setting": "[1]; 1 microgram/mL, nine days in micromass cultures", "result": 100, "unit": "%"},
      {"measurement": "increase of proteoglycan (PG) synthesis relative to control culture", "setting": "Murine ATDC5 cell line", "result": 25, "unit": "%"}
    ]}
  ]
}
